# Laboratory results from US20200368271A1, “METHOD AND APPARATUS FOR ADMINISTERING GASES INCLUDING NITRIC OXIDE” (priority 2015, published 2020).
# Columns and labels:
# [1] = system: mice with intratracheal administration of LPS; experiment: LPS-induced lung injury in mice (intratracheal LPS); type: in vivo; settings: for lung injury after intratracheal LPS: 2% H2 and/or 20 ppm NO for 3 hours starting at 5 minutes or 3 hours after LPS administration; for pulmonary inflammation and cell apoptosis: H2 and/or NO treatment
# From the text: Applicants have discovered that NO's effect as an antioxidant may be enhanced by eliminating highly reactive by-products of NO inhalation such as peroxynitrite, by adding H2 to inhaled NO gas.
# HIF = settings: cited from earlier work
# rats exposed to high O2 = settings: cited from earlier work
# neonatal piglets = settings: short-term exposure, Ekekezie 2000; cited from earlier work
# [2] = system: rat brain ischemia-reperfusion (I/R); settings: acute rat model, inhaled; Ohsawa 2007; cited from earlier work
# chrondrocytes = settings: Yokota 2015; cited from earlier work
Compound,lung injury after intratracheal LPS [1],pulmonary inflammation and cell apoptosis [1],lung collagen accumulation (neonatal piglets),further results
"[N]=O [NO, nitric oxide]",significantly improved,down-regulated,increases lung collagen accumulation,"effect on HIF at high doses (HIF; high doses and after 30 minutes): inhibitory; effect on HIF at low dose (HIF; low dose, for 30 minutes, during hypoxia): stimulates; survival in high O2 exposure (rats exposed to high O2; rats, inhaled NO): increase survival"
"O=O [O2, oxygen]",–,–,increases lung collagen accumulation,–
COC(=O)[C@@H](N)CCCN=C(N)N[N+](=O)[O-] [Nω-nitro-1-arginine methyl ester],–,–,–,"survival on exposure to >95% O2 with endogenous NO production blocked (rats exposed to high O2; neonatal rats, compared with control rats): significantly fewer survived"
"[HH] [H2, hydrogen]",significantly improved,down-regulated,–,brain injury associated with focal ischemia-reperfusion [2]: markedly suppressed; effect on cells under oxidant injury (chrondrocytes): cytoprotective effects
